Experimental data from US5164188A, “Biodegradable ocular implants” (Visionex, Inc., priority 1989, dated 1992).
Read-outs that look alike come from different tables or passages of the source.

Legend:
[1] = rabbit, in vivo
[2] = in vivo; conditions: rabbit
[3] = in vivo; conditions: rabbit; remark: listed apart in the source
[4] = rabbit, in vivo; remark: listed apart in the source
[5] = MTX level in eye, microcapsules in pars plana (EMIT); type: in vivo, rabbit; conditions: for Drug level, LE PC: left eye, posterior chamber, microcapsule in one eye only
[6] = MTX level in eye, plaque in pars plana (EMIT); type: in vivo, rabbit; conditions: for Drug level, LE PC: left eye, posterior chamber, plaque in one eye only
[7] = system: VX2 adenocarcinoma; conditions: in vitro; cited from earlier work

In the case of `C[C@]12CCC(=O)C=C1CC[C@@H]1[C@@H]2[C@@H](O)C[C@@]2(C)[C@H]1CC[C@]2(O)C(=O)CO` [Hydrocortisone, hydrocortisone], the “Drug level, RE PC” value ([1]; 43200 min) is reported as 0 ng/mL, the “Drug level, RE PC” value ([1]; 86400 min) is reported as 0 ng/mL and the “Drug level, RE PC” value ([1]; 129600 min) is reported as 0 ng/mL. It also gave a concentration at 168 h [2] of 1300 ng/mL, a concentration at 336 h [2] of 2000 ng/mL and a concentration at 504 h [2] of 2400 ng/mL. For the same compound, the concentration at 672 h [2] was 1100 ng/mL, the concentration at 840 h [2] was 900 ng/mL and the concentration at 1008 h [2] was 2000 ng/mL. It also gave a concentration at 720 h [3] of 1300 ng/mL, a concentration at 1440 h [3] of 1900 ng/mL and a concentration at 2160 h [3] of 2300 ng/mL. For the same compound, the “Drug level, RE PC” value ([4]; 10080 min) was 0 ng/mL, the “Drug level, RE PC” value ([4]; 20160 min) was 0 ng/mL and the “Drug level, RE PC” value ([4]; 30240 min) was 0 ng/mL. The “Drug level, RE PC” value ([4]; 40320 min) was 0 ng/mL, the “Drug level, RE PC” value ([4]; 50400 min) was 0 ng/mL and the “Drug level, RE PC” value ([4]; 60480 min) was 0 ng/mL.

In the case of `CN(Cc1cnc2nc(N)nc(N)c2n1)c1ccc(C(=O)N[C@@H](CCC(=O)O)C(=O)O)cc1` [MTX, methotrexate], the “Drug level, LE PC” value ([5]; 1 wk) is reported as 0 ng/mL, the “Drug level, LE PC” value ([5]; 2 wks) is reported as 0 ng/mL and the “Drug level, LE PC” value ([5]; 3 wks) is reported as 0 ng/mL. For the same compound, the “Drug level, LE PC” value ([5]; 4 wks) was 0 ng/mL, the “Drug level, LE PC” value ([5]; 5 wks) was 0 ng/mL and the “Drug level, LE PC” value ([5]; 6 wks) was 0 ng/mL. It also gave a concentration at 168 h ([5]; rabbit, posterior chamber of eye, right eye, 1 wk, microcapsule, read-out: Drug level, RE PC) of 800 ng/mL, a concentration at 336 h ([5]; rabbit, posterior chamber of eye, right eye, 2 wks, microcapsule, read-out: Drug level, RE PC) of 1200 ng/mL and a concentration at 504 h ([5]; rabbit, posterior chamber of eye, right eye, 3 wks, microcapsule, read-out: Drug level, RE PC) of 1400 ng/mL. For the same compound, the concentration at 672 h ([5]; rabbit, posterior chamber of eye, right eye, 4 wks, microcapsule, read-out: Drug level, RE PC) was 700 ng/mL, the concentration at 840 h ([5]; rabbit, posterior chamber of eye, right eye, 5 wks, microcapsule, read-out: Drug level, RE PC) was 1000 ng/mL and the concentration at 1008 h ([5]; rabbit, posterior chamber of eye, right eye, 6 wks, microcapsule, read-out: Drug level, RE PC) was 900 ng/mL. The “Drug level, LE PC” value ([6]; 1 mo) was 0 ng/mL, the “Drug level, LE PC” value ([6]; 2 mos) was 0 ng/mL and the “Drug level, LE PC” value ([6]; 3 mos) was 0 ng/mL. It also gave a concentration at 720 h ([6]; rabbit, posterior chamber of eye, right eye, 1 mo, plaque, read-out: Drug level, RE PC) of 1500 ng/mL, a concentration at 1440 h ([6]; rabbit, posterior chamber of eye, right eye, 2 mos, plaque, read-out: Drug level, RE PC) of 4000 ng/mL and a concentration at 2160 h ([6]; rabbit, posterior chamber of eye, right eye, 3 mos, plaque, read-out: Drug level, RE PC) of 2000 ng/mL.

For `CC[C@]1(O)C[C@H]2CN(CCc3c([nH]c4ccccc34)[C@@](C(=O)OC)(c3cc4c(cc3OC)N(C=O)[C@H]3[C@@](O)(C(=O)OC)[C@H](OC(C)=O)[C@]5(CC)C=CCN6CC[C@]43[C@@H]65)C2)C1` [Vincristine], the IC50 [7] is listed as 2 to 3 ng/mL.
